{"source": "ChEMBL document CHEMBL3758177", "about": "“Synthesis and biological evaluation of novel phosphoramidate derivatives of coumarin as chitin synthase inhibitors and antifungal agents” (Eur J Med Chem, 2016)", "key": {"Fusarium oxysporum [1]": {"system": "Fusarium oxysporum", "experiment": "Antifungal activity against Fusarium oxysporum ITCC 6246 after 48 hrs by micro-titer plate method", "type": "functional", "conditions": "ITCC 6246, 48 h"}, "Candida albicans [2]": {"system": "Candida albicans", "experiment": "Antifungal activity against Candida albicans CMCC 76615 after seven days by disc diffusion method", "type": "functional"}, "Fusarium oxysporum [3]": {"system": "Fusarium oxysporum", "experiment": "Antifungal activity against Fusarium oxysporum ITCC 6246 after 48 hrs by microdilution method", "type": "functional", "conditions": "ITCC 6246, 48 h"}, "Candida albicans [4]": {"system": "Candida albicans", "experiment": "Antifungal activity against Candida albicans CMCC 76615 after 48 hrs by microdilution method", "type": "functional", "conditions": "CMCC 76615, 48 h"}, "Aspergillus flavus": {"system": "Aspergillus flavus", "experiment": "Antifungal activity against Aspergillus flavus ATCC 16870 after 24 hrs by two-fold serial dilution method", "type": "functional", "conditions": "ATCC 16870, 24 h"}, "Aspergillus fumigatus": {"system": "Aspergillus fumigatus", "experiment": "Antifungal activity against Aspergillus fumigatus GIMCC 3.19 after 24 hrs by two-fold serial dilution method", "type": "functional", "conditions": "GIMCC 3.19, 24 h"}, "Cryptococcus neoformans": {"system": "Cryptococcus neoformans", "experiment": "Antifungal activity against Cryptococcus neoformans ATCC 32719 after 24 hrs by two-fold serial dilution method", "type": "functional", "conditions": "ATCC 32719, 24 h"}, "Candida albicans [5]": {"system": "Candida albicans", "experiment": "Antifungal activity against Candida albicans CMCC 76615 after 24 hrs by two-fold serial dilution method", "type": "functional", "conditions": "CMCC 76615, 24 h"}, "Escherichia coli": {"system": "Escherichia coli", "experiment": "Antibacterial activity against Escherichia coli JM 109 after 24 hrs by two-fold serial dilution method", "type": "functional", "conditions": "JM 109, 24 h"}, "Candida tropicalis": {"system": "Candida tropicalis", "experiment": "Inhibition of Candida tropicalis ATCC 750 chitin synthase using UDP-GlcNAc as substrate at 300 ug/ml after 60 mins by microplate reader method"}, "Staphylococcus aureus [6]": {"system": "Staphylococcus aureus", "experiment": "Antibacterial activity against Methicillin-resistant Staphylococcus aureus N 315 after 24 hrs by two-fold serial dilution method", "type": "functional", "conditions": "N 315, 24 h"}, "Staphylococcus aureus [7]": {"system": "Staphylococcus aureus", "experiment": "Antibacterial activity against Staphylococcus aureus ATCC 25923 after 24 hrs by two-fold serial dilution method", "type": "functional", "conditions": "ATCC 25923, 24 h"}, "Pseudomonas aeruginosa": {"system": "Pseudomonas aeruginosa", "experiment": "Antibacterial activity against Pseudomonas aeruginosa ATCC 9027 after 24 hrs by two-fold serial dilution method", "type": "functional", "conditions": "ATCC 9027, 24 h"}, "[8]": {"experiment": "Inhibition of Candida tropicalis ATCC 750 chitin synthase using UDP-GlcNAc as substrate after 60 mins by microplate reader method"}, "[9]": {"experiment": "Non-competitive inhibition of Candida tropicalis ATCC 750 chitin synthase using UDP-GlcNAc as substrate by Lineweaver-Burk plot analysis"}, "Proteus vulgaris": {"system": "Proteus vulgaris", "experiment": "Antibacterial activity against Proteus vulgaris ATCC 8427 after 24 hrs by two-fold serial dilution method", "type": "functional", "conditions": "ATCC 8427, 24 h"}, "Bacillus spizizenii": {"system": "Bacillus spizizenii", "experiment": "Antibacterial activity against Bacillus subtilis ATCC 6633 after 24 hrs by two-fold serial dilution method", "type": "functional", "conditions": "ATCC 6633, 24 h"}}, "data": [{"smiles": "C=C1CC(CC/C(C)=C\\COc2ccc3ccc(=O)oc3c2)OC1=O", "note": "(configuration not stated)", "values": [{"measurement": "MIC", "setting": "Fusarium oxysporum [1]", "value": 19, "unit": "µg/mL"}]}, {"smiles": "O=c1oc2ccccc2c(Cl)c1/C=N/c1nncs1", "values": [{"measurement": "diameter of the inhibition zone (DIZ)", "setting": "Candida albicans [2]", "value": 15, "unit": "mm"}]}, {"smiles": "Cc1ccc(NS(=O)(=O)c2cc3c(CN=[N+]=[N-])cc(=O)oc3cc2C)cc1", "values": [{"measurement": "MIC", "setting": "Fusarium oxysporum [3]", "value": 1, "unit": "µg/mL"}, {"measurement": "MIC", "setting": "Candida albicans [4]", "value": 1, "unit": "µg/mL"}]}, {"smiles": "OC(Cn1cncn1)(Cn1cncn1)c1ccc(F)cc1F", "note": "[FLUCONAZOLE]", "values": [{"measurement": "MIC", "setting": "Aspergillus flavus", "value": 32, "unit": "µg/mL"}, {"measurement": "MIC", "setting": "Aspergillus fumigatus", "value": 32, "unit": "µg/mL"}, {"measurement": "MIC", "setting": "Fusarium oxysporum [3]", "value": 8, "unit": "µg/mL"}, {"measurement": "MIC", "setting": "Cryptococcus neoformans", "value": 8, "unit": "µg/mL"}, {"measurement": "MIC", "setting": "Candida albicans [5]", "value": 16, "unit": "µg/mL"}, {"measurement": "MIC", "setting": "Candida albicans [4]", "value": 8, "unit": "µg/mL"}]}, {"smiles": "COC(=O)C(Cc1ccccc1)NP(=O)(OCCN(C)c1cc(=O)oc2ccc(C(C)(C)C)cc12)Oc1ccccc1", "note": "(configuration not stated)", "values": [{"measurement": "MIC", "setting": "Aspergillus flavus", "value": 2, "unit": "µg/mL"}, {"measurement": "MIC", "setting": "Escherichia coli", "value": 16, "unit": "µg/mL"}, {"measurement": "MIC", "setting": "Aspergillus fumigatus", "value": 32, "unit": "µg/mL"}, {"measurement": "inhibition", "setting": "Candida tropicalis", "value": 90, "unit": "%"}, {"measurement": "MIC", "setting": "Staphylococcus aureus [6]", "value": 128, "unit": "µg/mL"}, {"measurement": "MIC", "setting": "Staphylococcus aureus [7]", "value": 8, "unit": "µg/mL"}, {"measurement": "MIC", "setting": "Pseudomonas aeruginosa", "value": 16, "unit": "µg/mL"}, {"measurement": "MIC", "setting": "Cryptococcus neoformans", "value": 8, "unit": "µg/mL"}, {"measurement": "IC50", "setting": "[8]", "value": 80, "unit": "µM"}, {"measurement": "MIC", "setting": "Candida albicans [5]", "value": 8, "unit": "µg/mL"}, {"measurement": "Ki", "setting": "[9]", "value": 96, "unit": "µM"}, {"measurement": "MIC", "setting": "Proteus vulgaris", "value": 16, "unit": "µg/mL"}, {"measurement": "MIC", "setting": "Bacillus spizizenii", "value": 32, "unit": "µg/mL"}]}, {"smiles": "COC(=O)CNP(=O)(OCCN(C)c1cc(=O)oc2c(C)cccc12)Oc1ccccc1", "note": "(configuration not stated)", "values": [{"measurement": "MIC", "setting": "Aspergillus flavus", "value": 64, "unit": "µg/mL"}, {"measurement": "MIC", "setting": "Escherichia coli", "value": 32, "unit": "µg/mL"}, {"measurement": "MIC", "setting": "Aspergillus fumigatus", "value": 128, "unit": "µg/mL"}, {"measurement": "inhibition", "setting": "Candida tropicalis", "value": 55, "unit": "%"}, {"measurement": "MIC", "setting": "Staphylococcus aureus [6]", "value": 256, "unit": "µg/mL"}, {"measurement": "MIC", "setting": "Staphylococcus aureus [7]", "value": 128, "unit": "µg/mL"}, {"measurement": "MIC", "setting": "Pseudomonas aeruginosa", "value": 256, "unit": "µg/mL"}, {"measurement": "MIC", "setting": "Cryptococcus neoformans", "value": 64, "unit": "µg/mL"}, {"measurement": "IC50", "setting": "[8]", "value": 450, "unit": "µM"}, {"measurement": "MIC", "setting": "Candida albicans [5]", "value": 64, "unit": "µg/mL"}, {"measurement": "MIC", "setting": "Proteus vulgaris", "value": 256, "unit": "µg/mL"}, {"measurement": "MIC", "setting": "Bacillus spizizenii", "value": 512, "unit": "µg/mL"}]}, {"smiles": "COC(=O)C(Cc1ccccc1)NP(=O)(OCCN(C)c1cc(=O)oc2ccccc12)Oc1ccccc1", "note": "(configuration not stated)", "values": [{"measurement": "MIC", "setting": "Aspergillus flavus", "value": 8, "unit": "µg/mL"}, {"measurement": "MIC", "setting": "Escherichia coli", "value": 64, "unit": "µg/mL"}, {"measurement": "MIC", "setting": "Aspergillus fumigatus", "value": 128, "unit": "µg/mL"}, {"measurement": "inhibition", "setting": "Candida tropicalis", "value": 59, "unit": "%"}, {"measurement": "MIC", "setting": "Staphylococcus aureus [6]", "value": 128, "unit": "µg/mL"}, {"measurement": "MIC", "setting": "Staphylococcus aureus [7]", "value": 64, "unit": "µg/mL"}, {"measurement": "MIC", "setting": "Pseudomonas aeruginosa", "value": 64, "unit": "µg/mL"}, {"measurement": "MIC", "setting": "Cryptococcus neoformans", "value": 64, "unit": "µg/mL"}, {"measurement": "IC50", "setting": "[8]", "value": 250, "unit": "µM"}, {"measurement": "MIC", "setting": "Candida albicans [5]", "value": 64, "unit": "µg/mL"}, {"measurement": "MIC", "setting": "Proteus vulgaris", "value": 16, "unit": "µg/mL"}, {"measurement": "MIC", "setting": "Bacillus spizizenii", "value": 128, "unit": "µg/mL"}]}]}
